The values that follow come from the METLIN SMRT retention time set (Domingo-Almenara et al. 2019).

SMILES strings stand for the structures.

A short description of the series: gradient 5% acetonitrile 3 min, to 50% in 2 min, to 85% in 15 min, held 3 min, 100 µL/min. The note with it: column: Zorbax Extend-C18 2.1 x 50 mm; eluents: water / acetonitrile, 0.1% formic acid. The method in brief: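 Data were gathered over 3 months by HPLC coupled to a quadrupole time-of-flight mass spectrometer, operated in positive and negative ionization mode. Mixtures of ~100 pure standards ran on a Zorbax Extend-C18 column (2.1 × 50 mm, 1.8 μm) at 100 μL/min, with water and acetonitrile each containing 0.1% formic acid and dead and dwell volumes of 40 μL and 900 μL. Retention time was read from adduct peaks picked by computer and checked manually.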
In turn, `COc1ccc(-n2c(SCc3nc(-c4ccc(C)cc4)no3)nnc2-c2ccncc2)cc1` registered an RP-LC retention time of 1000 s. `CCN1C(=O)COc2ccc(-c3noc(-c4cc(C)cc(C)c4)n3)cc21` displayed an RP-LC retention time of 1330 s. `O=C(CC1(O)C(=O)Nc2c(Cl)cc(Cl)cc21)c1cccc([N+](=O)[O-])c1` (centres undefined) displayed an RP-LC retention time of 792 s. In the case of `COc1ccc(Cc2nnc(C3CCN(C(=O)Cc4cccs4)CC3)s2)cc1`, the RP-LC retention time was determined as 745 s.

In turn, `O=C(NCC1CCN(C2CCCC2)CC1)C(=O)Nc1ccc(OC(F)(F)F)cc1` came in with an RP-LC retention time of 611 s. The compound `Cc1ccc(NC(=O)N2CCOCCNC(=O)[C@H]3CCCC[C@H]32)cc1C` came in with an RP-LC retention time of 829 s. The compound `Cc1cc(N2CCN(C(=O)Nc3ccc(F)c(Cl)c3)CC2)nc(N2CCOCC2)n1` yielded an RP-LC retention time of 665 s. For `O=C(Nc1cccc(Cl)c1)N1CCC(n2cnc3cc(F)ccc3c2=O)CC1` the value was 858 s; for `O=C(CCCc1ccccc1)N1CCN2CCS(=O)(=O)N(C3CC3)C(=O)C2C1` (centres undefined), 852 s. In turn, `CCNC(=O)c1nc2ccccc2n(CC)c1=O` returned an RP-LC retention time of 659 s. As to `CC(=O)N1CCC(C(=O)Nc2ccc(OCc3nnc(-c4ccccc4)o3)cc2)CC1`, the RP-LC retention time worked out at 712 s. The value for `Cc1ccc(Nc2c(-c3ccc(Br)cc3)nc3cnccn23)cc1Cl` was 1180 s; that for `CCCn1ccc2sc(C)c(C(=O)NCc3ccc(Cl)cc3)c2c1=O` was 985 s; that for `O=S(=O)(c1cccc2c(Cl)cccc12)N1CCCNCC1` was 716 s. `CC1=CC(=O)CC(C)(C)C1(O)/C=C/C(C)=C\C(=O)O` (centres undefined) yielded an RP-LC retention time of 683 s. `O=C(Nc1ccc2c(c1)OCCO2)N1CCC2(CC1)CC(N1CCOCC1)CCO2` (centres undefined) gave an RP-LC retention time of 572 s. Turning to `CCCNC(=O)N(C1CCOCC1)C1CCN(C(=O)Nc2c(F)cccc2F)CC1`, the RP-LC retention time came to 685 s. Regarding `O=C(C1CC(=O)N(c2ccc3c(c2)CCN3C(=O)C2CC2)C1)N1CCCC1` (centres undefined), the RP-LC retention time worked out at 647 s. With `CC(C)CCN1CCC(N2CCN(S(=O)(=O)Cc3cccc(Cl)c3)CC2)C1=O` (centres undefined), the RP-LC retention time is 699 s. Consider `CN1C(=O)c2cc(C(=O)NCc3cccc(Cl)c3)nn2CC1(C)C(=O)NC1CCCCC1` (centres undefined), for which the RP-LC retention time came out at 793 s. The value for `O=C(NCCc1c[nH]c2ccccc12)C(=O)c1cn(CC(=O)N2CCOCC2)c2ccccc12` was 832 s; that for `Cc1cccc(NC(=O)N2CCN(c3cc(C)nc(N4CCOCC4)n3)CC2)c1` was 623 s.

Consider `CCNC(=O)C1N(C(C)C)C(=O)C12CCCCC2` (centres undefined), for which the RP-LC retention time came out at 630 s.

`COC(=O)c1cc(S(=O)(=O)N2CCCC2C(=O)NCc2ccccn2)cn1C` (centres undefined) displayed an RP-LC retention time of 590 s.

`Cc1ccc(-n2c(=O)c3c(cc(C)n3C)n(CC(=O)Nc3ccccc3Cl)c2=O)cc1` yielded an RP-LC retention time of 900 s.

The compound `COc1ccc(N2CCN(C(=O)Cc3csc4nc(-c5ccc(OC)c(OC)c5)cn34)CC2)cc1` registered an RP-LC retention time of 686 s.

Compound `CC(C)n1c(N2CCN(C(=O)COc3ccccc3)CC2)cc(=O)n(C(C)C)c1=O` came in with an RP-LC retention time of 855 s. In turn, `Cc1ccccc1N1CCN(C(=O)Cn2c(=O)c3nnc(C)n3c3ncccc32)CC1` returned an RP-LC retention time of 793 s.

As to `Cc1ccc(NC(=O)NC2CCN(c3ccc(F)cc3)C2=O)cc1F` (centres undefined), the RP-LC retention time stood at 886 s. Take `Cc1ccc(C)c(CN2CCCN(c3ncccc3-c3nc(C(C)C)no3)CC2)c1`: the RP-LC retention time is 790 s. On to `CCCN(CC1CCOC1)C(=O)NCc1ccc(C)cc1` (centres undefined), for which the RP-LC retention time is 796 s. For `O=C(NCCC1=CCCCC1)C1CCN(c2ncccc2S(=O)(=O)N2CCCCC2)CC1`, the RP-LC retention time stood at 1080 s. On to `CS(=O)(=O)N(Cc1cccnc1)C1CN(C(=O)Nc2ccc3c(c2)OCCO3)C1`, for which the RP-LC retention time came out at 551 s. Turning to `Cc1cc(C)c2sc(N(CCCn3ccnc3)C(=O)C3COc4ccccc4O3)nc2c1` (centres undefined), the RP-LC retention time worked out at 667 s. The value for `CCN(CC)C(=O)C1Cn2cccc2C(=O)N1C` (centres undefined) was 606 s. In turn, `Cc1cc(C)c(NC(=O)Cn2nc3cc(C)nc(-c4ccccc4)n3c2=O)c(C)c1` came in with an RP-LC retention time of 867 s. On to `O=C(NCCN1CCCCCC1)C1CCCN(c2ncc(-c3cccc(F)c3)cn2)C1` (centres undefined), for which the RP-LC retention time was determined as 715 s. `Cc1nn2c(S(=O)(=O)NC3CCCCCC3)c(C)nc2s1` came in with an RP-LC retention time of 844 s. In the case of `O=C(c1ccc2cc[nH]c2c1)N1CCCN(c2cc(-c3ccc(Cl)cc3)[nH]n2)CC1`, the RP-LC retention time was found to be 770 s. For `CCN1C(=O)c2cccnc2Sc2cc(CNC(=O)c3cccc(F)c3)ccc21`, the RP-LC retention time stood at 791 s. Turning to `Cc1nn(-c2nc(CC(=O)N3CCC(C)CC3)cs2)c(C)c1Cl`, the RP-LC retention time was determined as 1190 s. The compound `Cc1ccc(S(=O)(=O)N2CCN(S(=O)(=O)N3CCCCC3)CC2)cc1` displayed an RP-LC retention time of 922 s. In turn, `CC(Cc1ccco1)NC(=O)Cn1c2ccccc2c2cnn(C)c(=O)c21` (centres undefined) came in with an RP-LC retention time of 790 s. For `O=C(Cn1nc(N2CCOCC2)c2ccccc2c1=O)Nc1cccc(Cl)c1` the value was 846 s. With `NS(=O)(=O)c1ccc(NC2(C(=O)O)CCCC2)cc1`, the RP-LC retention time was 1010 s. Consider `CC1CN=C2C(N3CCN(C(=O)c4ccc(C#N)cc4)CC3)=NC=CN21` (centres undefined), for which the RP-LC retention time worked out at 678 s. For `CC(C)Oc1ccc(-c2noc(Cn3c(=O)n(Cc4ccccc4)c(=O)c4sccc43)n2)cc1` the value was 1170 s; for `COc1cc(OC)c(NC(=O)Nc2ccc3nc(N4CCN(C)CC4)cc(C)c3c2)cc1Cl`, 614 s. In the case of `CNC(=O)c1c(NC(=O)COc2ccc(Cl)cc2)sc2c1CCC2`, the RP-LC retention time stood at 1100 s. `O=C(NCCC1=CCCCC1)C(=O)Nc1ccc(Cl)cn1` yielded an RP-LC retention time of 1050 s. The value for `CCCOc1nn(CCC)cc1C(=O)N1CCCC1` was 700 s; that for `CC(=O)c1ccc(NC(=O)c2cnc(-c3ccc(F)cc3)nc2-c2ccncc2)cc1` was 837 s. As for `Cc1sc2ccn(C)c(=O)c2c1C(=O)NCc1ccc(N2CCOCC2)cc1`, the RP-LC retention time was found to be 647 s. In turn, `O[Si](CCCN1CCCCC1)(c1ccc(F)cc1)C1CCCCC1` (centres undefined) registered an RP-LC retention time of 865 s. For the compound `COc1ccc(S(=O)(=O)Cc2nc(-c3ccc(C)cc3)no2)cc1OC`, the RP-LC retention time turned out to be 960 s. Compound `O=C(Cc1nnc2cc(-c3nc(C4CC4)no3)ccn12)Nc1ccc(Cl)cc1` came in with an RP-LC retention time of 816 s. Turning to `COc1ccc2[nH]cc(CCN3CC(C(=O)Nc4cc(C)cc(C)c4)CC3=O)c2c1` (centres undefined), the RP-LC retention time was found to be 846 s. For the compound `CCN(CC)CCNc1ncnc2onc(-c3ccc(F)cc3)c12`, the RP-LC retention time was 625 s. The compound `Cc1nn(-c2ccccc2)c(C)c1S(=O)(=O)N1CCC(C(=O)Nc2ccc3c(c2)OCCO3)CC1` came in with an RP-LC retention time of 914 s.
